“Also recorded” adds a separate entry of the source.
Experiments:
U87MG cells = test: Hippocampal U87MG GBM xenograft, tumor growth by in vivo bioluminescent imaging; set-up: species or system BALB/c (nu/nu) mice
Protocol: FIGS. 3A-3C illustrate that a PAF-r antagonist reduces GBM tumor size. U87MG cells were implanted in the right dorsal CA3 hippocampal region of BALB/c (nu/nu) mice. Intracranial tumor growth was quantified using Jo vivo bioluminescent imaging on days 10 and 25. Saline (vehicle) or LAU-0901 (60 mg/kg/day; i.p., n=6 in each group) was administered daily from day 10, during 5 days.
Experimental Design and Methods: PAF-r deficient and wild type mice and athymic nude mice, 6 to 8 weeks of age (Harlan Laboratories) mice were used. The xerograph GBM mouse model is representative of this tumor, which has a narrow survival window. These cells form a massive and homogenous mass from tumor-initiating cells, are localized, and invade neuronal tissue. This model is a predictor of therapeutic responses in human glioblastoma patients. U87MG cells (FIGS. 2A-3C) with a luciferase reporter gene were injected (5×10^5 cells in […] serum-free DMEM) into the right dorsal CA3 hippocampal region (coordinates: 2.5 mm lateral, 1.7 mm posterior to the bregma, and 1.5 depth) of mice (6-8 wks of age) (Marrero et al., 2014).
In vivo imaging analysis: Intracranial tumor growth was quantified by bioluminescent imaging using an in vivo imaging system and procedures as described by Marrero et al., 2014, incorporated herein by reference in its entirety.

microglia = conditions: in vivo; cited from earlier work
[1] = Pentylenetetrazol (PTZ) test, locomotor seizures by modified Racine's score; format: in vivo, mice; conditions: single dose 60 mg/kg i.p. 2 h before PTZ 40 mg/kg i.p.; vs vehicle
Protocol: A single dose (i.p.) of a LAU compound 60 mg/kg; ip.) or vehicle (0.1 mL of sterile 0.9% sodium chloride) was administered 2 h before a single dose of pentylenetetrazol (PTZ) (40 mg/kg; i.p.). Data represent average and bars±S.E.M. t-test between vehicle and for each LAU compound: LAU0901 p<0.031; others: p<0.0001 at 60 mins. Maximum seizure levels and the percentage reduction from vehicle after PTZ injection are shown. Locomotor seizures were video recorded and quantified according to a modified Racine's score (Stage: 0 normal locomotor activity. Stage 1, behavioral arrest, Stage 2: head nodding; stage 3, facial movements and contralateral forelimb dorms).
Pentylenetetrazol test: The systemic administration of pentylenetetrazol (PTZ) in rodents, an accepted model to test the potential anti-convulsive effect (Loscher, 2011) was used to evaluate seizure susceptibility in mice with GBM cell implantation. It has been seen that systemic administration of PTZ at 35 mg/kg is useful as a sub-convulsive dose to evaluate seizures after brain damage. Animals were placed in individual Plexiglas cages (28×28×37.5 cm) and then a single dose of PTZ (Sigma, St. Louis, MO) at 35 mg/kg were administered intraperitoneally (i.p.) to each animal. Locomotor seizures were quantified according to a modified Racine's Score classified as previously described (Musto et al., 2009, 2011).

[2] = system: dysmorphic filopodia-like spines; test: Dysmorphic filopodia-like dendritic spines in epileptogenesis, Golgi staining; format: in vivo, mice; conditions: 7 days after SE
Protocol: Cyto-architecture hippocampal neurons, dendrites and dendritic spines was evaluated using rapid Golgi staining and the DIOLISTIC labeling approach, as shown in FIG. 12A. Then dendrites and dendritic spines from pyramidal cells were reconstructed, analyzed, and visualized in a 30 shape of neurons from the ipsi and contralateral hippocampal region using light and confocal microscopy, digitally-traced, mediated computational analysis.

[3] = Seizure susceptibility and survival after status epilepticus (SE); format: in vivo, BALB/c (nu/nu) mice; conditions: 60 mg/kg i.p. daily for 5 days, 24 h after SE
Protocol: BABL/c (nu/nu) mice received compound LAU-0901 (60 mg/kg; i.p.) or saline daily for 5 days 24 h after SE.
GBM cells were implanted into PAF-r deficient or wild type mice. Lyn kinase inhibitor (Dasatinib; 0.01 mL/g) (Luo et al., 2000) or vehicle (propylene glycol/water) was administered intraperitoneally at 14 d after GBM implantation and continues for 14 d. Alternatively, BALB/c, (nu/nu) mice received LAU-0901 (60 mg/kg; i.p.) or saline daily for 5 days (n=4-5 per group) 24 h after SE. Weight, locomotion, survival rate, behavior, in vivo tumor growth, and GBM cells were analyzed.

Lyn kinase = test: Phospho-Lyn in hippocampal synapsis after SE, immunohistology; format: in vivo, mice; conditions: hippocampus
MIP-2 [4] = test: Hippocampal MIP-2 after neuroinflammation (LPS / post status epilepticus), bead-based immunodetection; format: in vivo, mice; conditions: 60 mg/kg/daily for 5 days i.p.
Protocol: MIP-2 was measured using bead-based immunodetection. Values are means±SD: *P<0.05 (two-way repeated-measures ANOVA).
MIP-2 was measured using bead-based immunodetection respectively. Diamonds: interval of confidence; diamond internal horizontal line; group mean; bar lines; standard deviation. Data represent average and bars±S.E.M; n=3 of each group. ANOVA one way, *=p<0.05.
Pro-inflammatory molecular analysis: LC-MS/MS-based mediator lipidomic analysis will be evaluated as described previously (Musto et al., 2011, Musto and Samii, 2011), chemokine analysis was performed using commercial enzyme-linked immune-absorbent assay (Rodent MAPs Myira RBM, USA), and matrix metalloproteinase (MMP) activity were investigated by gelatin zymography assay (Ramaswamy et al., 2014).

MIP-2 [5] = test: MIP-2 in mice with GBM; format: in vivo; conditions: compared with vehicle

Row | Compound | tumor size (U87MG cells; 60 mg/kg/day i.p. for 5 days from day 10, representative images, 10 week-survival period, vs saline) | tumor size diminished compared to saline-treated group (U87MG cells; day 25, 60 mg/kg/day i.p. for 5 days from day 10) | body weight (U87MG cells; weeks 8 and 10, compared to saline group) | microglia activation (microglia) | neuronal hyper-excitability (locomotor seizures after PTZ) [1] | average spine length for dysmorphic filopodia-like spines [2] | seizure severity [3] | puncta phospho-Lyn and co-localization with pre- and post-synaptic markers (Lyn kinase) | hippocampal levels of MIP-2 (MIP-2 [4]; LPS one week after status epilepticus, vs saline (FIG. 4)) | hippocampal levels of MIP-2 (MIP-2 [4]; LPS or one week after status epilepticus (PSE), vs vehicle (FIG. 20), 60 mg/kg) | increases of MIP-2 (MIP-2 [5])
1 | 2,4,6-trimethyl-1,4-dihydro-pyridine-3,5-dicarboxylic acid 5-[2-(3,4-dichlorophenyl) sulfanethyl ester 3-[1,3-di-(4-morpholinyl)-2-propyl-1-ester [LAU-0901] | dramatically reduced | 80% | increased | reduces microglia activation | counteract neuronal hyper-excitability | increased in the vehicle-treated compared to the LAU-0901-treated group | reduced seizure severity | low puncta phospho-Lyn | reduced | limited; also recorded: reduces | –
2 | CC(C)Cc1ccc([C@@H](C)C(=O)NS(C)(=O)=O)cc1 [repertaxin] | – | – | – | – | – | – | – | – | – | – | higher in those mice treated with vehicle

— patent US12070463B2, “Compositions and methods for the treatment of seizure caused by brain tumor” (Board Of Supervisors Of Louisiana State University And …, priority 2015, dated 2024)
